Measurements taken from US8883856B2, “Compositions and methods for the treatment of inflammatory diseases using topoisomerase inhibitors” (priority 2000, dated 2014).
Read-outs that look alike come from different tables or passages of the source.

Assays:
[1] = In vitro drug release from polymeric formulations; format: physicochemical
[2] = test system: collagenase gene; assay: IL-1 induced collagenase gene expression in chondrocytes; format: cell-based, calf
Excerpt: (§1) This assay measures the levels of RNA for the two metalloproteinases, collagenase and stromelysin. Over-expression of these genes results in excessive synthesis and secretion of these two enzymes from articular chondrocytes and may represent part of the pathophysiology of rheumatoid arthritis. Agents that inhibit over-expression of collagenase and stromelysin can be antiarthritc agents. […] Proteoglycan gene expression is part of the normal physiology of chondrocytes.
(§2) Primary chondrocyte culture was freshly isolated from calf cartilage. The cells were plated (at 2.5×10^6/mL) in 100×20 mm culture dishes and incubated in Ham's F12 medium containing 5% fetal bovine serum (FBS) overnight at 37° C. The cells were starved with serum-free medium overnight. […] Then IL-1 (20 ng/mL) was added to each plate and the plates were incubated for an additional 18 hours. Total RNA was isolated by the acidified guanidine isothiocyanate method and subjected to electrophoresis on a denatured gel. Denatured RNA samples (15 ug) were analyzed by gel electrophoresis in a 1% denaturing gel, transferred to a nylon membrane, and hybridized respectively with the ^32P-labelled collagenase cDNA probe, ^32P-labelled stromelycin cDNA probe, ^32P-labelled proteoglycan cDNA probe and ^32P-labelled glyceraldehyde phosphate dehydrogenase (PAGDH) cDNA. The PAGDH levels acted as an internal standard to ensure roughly equal loading. The experimental results on X-ray films were scanned and analyzed with HP ScanJet.

[3] = test system: stromelycin gene; assay: IL-1 induced stromelycin gene expression in chondrocytes; format: cell-based, calf
Excerpt: as §1, §2

[4] = test system: chorioallantoic membrane of the chick embryo; assay: Angiogenesis in the chick chorioallantoic membrane (CAM assay); format: in vivo; conditions: for number of eggs (CAM's) with antiangiogenic activity None (score 0) / number of eggs (CAM's) with antiangiogenic activity Partial (score 1-2) / number of eggs (CAM's) with antiangiogenic activity Maximal (score 3): 48 hours
Excerpt: Sheets of sterile waxed paper were placed onto the window that was created in the air space and were used to prevent contamination and dehydration of the egg contents. These sheets, measuring 4 cm×4 cm, were sterilized by spraying them with 70% ethanol and allowing them to dry in the laminar flow hood. […] Using 70% ethanol and Kimwipes, the entire eggshell was wiped down to help clean and sanitize the outside of the egg. Inside a laminar flow hood, the egg was held with the blunt side up and a hole was made in the blunt end of the egg by carefully cracking the shell with the end of forceps. The shell remnants were gently removed with forceps to form a hole in the blunt end. This circular hole was made as large as 2 to 3 cm in diameter without damaging the inner membrane. Once the hole was created in the shell, the inner shell membrane (which houses the egg contents) was gently torn and removed using the forceps, taking care not to damage the chorioallantoic membrane (CAM) (which houses the yolk and developing chick embryo). The hole was then covered with the sheet of sterilized parafilm wax paper by gently stretching the parafilm and then placing it around the hole. The egg was then placed in the egg rack in the incubator (37° C.) and positioned in such a way as to prevent rotation. After 6 days each egg was removed one by one from the incubator (blunt side up), and the parafilm covering the window was removed for direct access to the CAM, which originates from the hind gut of the embryo. The drug-loaded polymer was placed onto the growing capillary bed of the CAM. The egg contents were then resealed with the parafilm sheet and placed back into the 37° C. incubator. […] The values of the avascular scale describe the following: […]

[5] = test system: human neutrophils; assay: Neutrophil chemiluminescence (neutrophil activation); format: cell-based; conditions: for IC50 / inhibition at 10 µM: Homo sapiens, Neutrophil; for IC50: read-out: IC 50, inhibition of neutrophil chemiluminescence
Protocol: Freshly prepared human neutrophils were incubated with the compound followed by stimulation of the cells with either plasma opsonized CPPD crystals, the bacterial chemoattractant, fMLP or the phorbol ester, PMA. Stimulation (or activation) of the cells induced superoxide anion generation which could be measured by the emission of light (chemiluminescence). Inhibition of neutrophil function was then determined by inhibition of chemiluminescence. Hanks buffered salt solution (HBSS) pH 7.4 was used throughout the study. All chemicals were purchased from Sigma Chemical Co. (St. Louis, Mo.) unless otherwise stated. All procedures were performed at 37° C. unless otherwise stated. CPPD (triclinic) crystals were prepared and characterized as previously reported (Jackson J K et al., J Rheumatol, 24: 341-348, 1996). The size distribution of the crystals was approximately 33% less than […]. Opsonization of crystals was carried out using 50% heparinized plasma and concentrations of 50 mg of CPPD in 1 mL of 50% plasma. Crystals were incubated with diluted plasma for 30 min at 37° C., centrifuged at 1000×g, then washed in HBSS and recentrifuged. Neutrophils were prepared from freshly collected, human, citrated whole blood. Briefly, 400 mL of blood were mixed with 80 mL of 4% dextran T500 (Pharmacia LKB, Biotechnology AB Uppsala, Sweden) in HBSS and allowed to settle for 1 h. Plasma was collected continuously and 5 mL applied to 5 mL Ficoll Paque (Pharmacia) in 15 mL polypropylene tubes (Corning, N.Y.). Following centrifugation at 500×g for 30 min, the neutrophil pellets were washed free of erythrocytes by 20 s of hypotonic shock. Neutrophils were resuspended in HBSS, kept on ice and used for experiments within 3 h. Neutrophil viability and purity was always greater than 90%.
A stock solution of drug was diluted in DMSO to give various concentrations of drug. Equal volumes of these solutions were added to neutrophils at 5×10^6 cells per mL under mild vortexing to achieve final concentrations with a final DMSO concentration of 0.25%. This DMSO concentration found to have no effect on control cell responses. Cells were incubated for 15 minutes at 37° C. before addition to crystals, fMLP or PMA.
Chemiluminescence studies were performed at a cell concentration of 5×10^6 cells per mL in HBSS with CPPD (50 mg/mL). In all experiments 0.5 mL of cells were added to 25 mg of CPPD or 1 uM fMLP (and 0.5 uM cytochalasin B) or 0.5 uM PMA in 1.5 ml Eppendorf tubes. To the tubes were added 10 uL of luminol dissolved in 25% DMSO in HBSS to give a final concentration of 1 μM and the samples were mixed to initiate neutrophil activation. Chemiluminescence was monitored using an LKB Luminometer (Model 1250) at 37° C. with shaking immediately prior to measurements to resuspend the crystals. Control tubes contained cells, drug and luminol (crystals absent).

[6] = ethylene vinyl acetate films, PBS pH 7.4, 37° C.
[7] = polycaprolactone paste, PBS, 37° C.
[8] = summary over all concentrations tested in PCL or PCL-MePEG pellets

| Structure (SMILES) | drug release profile [1, 6] | drug release profile [1, 7] | IL-1 induced collagenase gene expression ([2]; 1×10^−5 M) | IL-1 induced stromelycin gene expression ([3]; 1×10^−5 M) | number of eggs (CAM's) with antiangiogenic activity None (score 0) ([4]; 1.0% w/w in PCL pellet) | number of eggs (CAM's) with antiangiogenic activity Partial (score 1-2) ([4]; 1.0% w/w in PCL pellet) | number of eggs (CAM's) with antiangiogenic activity None (score 0) ([4]; 4.0% w/w in PCL pellet) | number of eggs (CAM's) with antiangiogenic activity Partial (score 1-2) ([4]; 4.0% w/w in PCL pellet) | inhibition of angiogenesis in the CAM, in words [4, 8] | number of eggs (CAM's) with antiangiogenic activity Partial (score 1-2) ([4]; 0.5% w/w in PCL pellet) | number of eggs (CAM's) with antiangiogenic activity Partial (score 1-2) ([4]; 5.0% w/w in PCL pellet) | number of eggs (CAM's) with antiangiogenic activity Partial (score 1-2) ([4]; 2.0% w/w in PCL pellet) | inhibition at 10 µM [5] [%] | further results |
| --- | --- | --- | --- | --- | --- | --- | --- | --- | --- | --- | --- | --- | --- | --- |
| CC1(C)CCC2=C(O1)c1ccccc1C(=O)C2=O [beta-lapachone] | initial burst of drug release followed by a slow sustained release | initial burst of drug release followed by a slow sustained release | almost completely inhibited | almost completely inhibited | 4 | 2 | 4 | 11 | inhibited angiogenesis in almost all CAM's |  |  |  |  | number of eggs (CAM's) with antiangiogenic activity Maximal (score 3) ([4]; 4.0% w/w in PCL pellet): 6; inhibition of angiogenesis in the CAM, in words ([4]; 6% w/w in PCL): partial to full inhibition of angiogenesis; number of eggs (CAM's) with antiangiogenic activity Partial (score 1-2) ([4]; 60% in PCL pellet as printed): 10; IC50 ([5]; three agonists: CPPD crystals, fMLP, PMA): 1 to 10 µM |
| CC[C@@]1(O)C(=O)OCc2c1cc1n(c2=O)Cc2cc3ccccc3nc2-1 [camptothecin] | initial burst of drug release followed by a slow sustained release | initial burst of drug release followed by a slow sustained release |  |  | 4 | 6 |  |  | extensive inhibition of angiogenesis | 12 | 20 |  |  | effect of addition of MePEG to the PCL on release rate ([1]; 10% and 20% camptothecin loaded PCL paste, 20% MePEG): accelerated the release rate; drug release profile ([1]; chitosan films, PBS pH 7.4, 37° C.): initial burst of drug release followed by a slow sustained release; drug release profile ([1]; poly(L-lactic acid) microspheres, PBS pH 7.4, 37° C.): initial burst of drug release followed by a slow sustained release; drug release profile ([1]; triblock copolymer/MePEG paste, PBS pH 7.4 with n-octanol, 37° C.): initial burst of drug release followed by a slow sustained release; IL-1 induced collagenase gene expression ([2]; 1×10^−7 M): almost completely inhibited; IL-1 induced stromelycin gene expression ([3]; 1×10^−7 M): almost completely inhibited; number of eggs (CAM's) with antiangiogenic activity None (score 0) ([4]; 0.1% w/w in PCL pellet): 7; number of eggs (CAM's) with antiangiogenic activity Partial (score 1-2) ([4]; 0.1% w/w in PCL pellet): 1; inhibition of angiogenesis in the CAM, in words ([4]; 0.5% (w/w to PCL)): strong evidence of inhibition of angiogenesis; number of eggs (CAM's) with antiangiogenic activity Maximal (score 3) ([4]; 0.5% w/w in PCL pellet): 2; number of eggs (CAM's) with antiangiogenic activity None (score 0) ([4]; 0.5% w/w in PCL pellet): 8; number of CAM's with full or partial inhibition ([4]; 5% (w/w to PCL)): 29; number of eggs (CAM's) with antiangiogenic activity Maximal (score 3) ([4]; 5.0% w/w in PCL pellet): 9; number of eggs (CAM's) with antiangiogenic activity None (score 0) ([4]; 5.0% w/w in PCL pellet): 3; inhibition of neutrophil chemiluminescence ([5]; concentration printed as (5%)): 2% |
| COc1cccc2c1C(=O)c1c(O)c3c(c(O)c1C2=O)C[C@@](O)(C(=O)CO)C[C@@H]3O[C@H]1C[C@H](N)[C@H](O)[C@H](C)O1 [doxorubicin] | initial burst of drug release followed by a slow sustained release | initial burst of drug release followed by a slow sustained release | completely inhibited | completely inhibited |  |  |  | 4 | partially inhibited angiogenesis in all but one CAM | 5 | 3 | 20 | 13 | stromelysin expression ([3]; 1×10^−6 M): partial inhibition; number of eggs (CAM's) with antiangiogenic activity None (score 0) ([4]; 2.0% w/w in PCL pellet): 1; inhibition of angiogenesis in the CAM, in words ([4]; 5% (w/w to PCL)): partial to full inhibition of angiogenesis |
| COc1cc([C@@H]2c3cc4c(cc3[C@@H](O[C@@H]3O[C@@H]5CO[C@@H](C)O[C@H]5[C@H](O)[C@H]3O)[C@H]3COC(=O)[C@H]23)OCO4)cc(OC)c1O [etoposide] | initial burst of drug release followed by a slow sustained release | initial burst of drug release followed by a slow sustained release | inhibited | inhibited |  |  | 2 | 5 | inhibited angiogenesis in almost all CAM's treated |  |  |  | 25 | number of eggs (CAM's) with antiangiogenic activity Partial (score 1-2) ([4]; 8.0% w/w in PCL pellet): 5; number of eggs (CAM's) with antiangiogenic activity Maximal (score 3) ([4]; 15.0% w/w in PCL pellet): 4; number of eggs (CAM's) with antiangiogenic activity Partial (score 1-2) ([4]; 15.0% w/w in PCL pellet): 9; number of CAM's showing full inhibition ([4]; all etoposide pellets (4%, 8%, 15% PCL; 10% PCL-MePEG)): five |
| CC1=CC(=O)c2ccccc2C1=O [menadione] |  | initial burst of drug release followed by a slow sustained release | inhibited | inhibited |  |  |  |  | partial inhibition of angiogenesis in a number of CAM's |  |  | Necrosis |  | drug release profile ([1]; polycaprolactone microspheres, PBS pH 7.4, 37° C.): initial burst of drug release followed by a slow sustained release; generalized cytotoxicity in the CAM ([4]; drug-loaded PCL pellets): some evidence of necrosis in non-capillary cells and membrane thinning; IC50 ([5]; activation by MSUM crystals): 0.5 to 1 µg/mL |
